From article PMC11477298, “Small Molecules Inducing Autophagic Degradation of Expanded Polyglutamine Protein through Interaction with Both Mutant ATXN3 and LC3” (International Journal of Molecular Sciences, 2024)

How the values were obtained:
Format in all cases: cell-based, human
[1] = MTT compound cytotoxicity assay; conditions: human, ATXN3-Q75-GFP SH-SY5Y cells, 0.1–100 μM compound, viability analyzed the next day, n = 3
Protocol: For the compound cytotoxicity assay, ATXN3-Q75-GFP SY5Y cells (2 × 10^4) were plated into 96-well dishes, grown for 20 h, and treated with 0.1–100 μM test compounds. After 1 day, 3-(4,5-dimethylthiazol-2-yl)-2,5-diphenyltetrazolium bromide (MTT, 5 mg/mL) (Sigma-Aldrich, St. Louis, MO, USA) was added to the cells and incubated for 3 h at 37 °C. Lysis buffer (10% Triton X-100, 0.1 N HCl, 18% isopropanol) was then added to dissolve the insoluble formazan crystals. The absorbance of the purple-colored solution was measured at optical density (OD) 570 nm by using a FLx800 fluorescence microplate spectrophotometer (Bio-Tek, Winooski, VT, USA). The half-maximal inhibitory concentration (IC50) was calculated through the construction of a dose–response curve.

[2] = test system: ATXN3-Q75-GFP SH-SY5Y cells; assay: High-content neurite outgrowth assay; conditions: for Neurite branch: untreated 1.16; for Neurite length: untreated 23.2 µm
Protocol: (§1) ATXN3-Q75-GFP SH-SY5Y cells (5 × 10^4/well) were plated onto 24-well plates, with retinoic acid addition (10 µM; Sigma-Aldrich) on day 1 to initiate neuronal differentiation. On day 2, the cells were pretreated with disaccharide trehalose (10 mM, as a positive control) or the studied compounds (10 μM) for 8 h, followed by the addition of doxycycline (5 μg/mL, Sigma-Aldrich) to induce ATXN3-Q75-GFP expression. The cells were kept in the medium containing retinoic acid, the test compound, and doxycycline for 6 days, with the culture medium changed on day 5. ATXN3-Q75 aggregation and neurite outgrowth assays were performed on day 8 using a high-content imaging system (ImageXpress Micro Confocal; Molecular Devices).
For the aggregation assay, cells were stained with Hoechst 33342 (0.1 µg/mL; Sigma-Aldrich) at 37 °C for 30 min. Images of the cells were automatically obtained at excitation/emission wavelengths of 482/536 nm (FITC [fluorescein isothiocyanate] filter) for enhanced GFP and 377/447 nm (DAPI [4′,6-diamidino-2-phenylindole] filter) for nucleus counting. ATXN3-Q75 aggregation was determined by Transfluor technology based on GFP fluorescence intensity. For the neurite outgrowth assay, cells were fixed with 4% paraformaldehyde for 30 min, permeabilized with 0.1% Triton X-100 for 10 min, and blocked by non-specific binding with 3% bovine serum albumin for 20 min. The primary TUBB3 (neuronal class III β-tubulin) antibody (1:1000; BioLegend #802001, San Diego, CA, USA) was used to stain cells at 4 °C overnight, followed by Alexa Fluor 555-donkey anti-rabbit IgG secondary antibody (1:1000; Invitrogen #A-31572) staining for 2 h at room temperature. Nuclei were detected using DAPI (0.1 μg/mL; Sigma-Aldrich). Cell images were obtained at excitation/emission wavelengths of 531/593 nm (TRITC [tetramethylrhodamine] filter) for stained neurites and 377/447 nm (DAPI filter) for nuclei. To quantify neurite outgrowth, microscopic images were segmented with multi-colored masks to assign each outgrowth to a cell body for quantification. Neurite total length (μm) and numbers of process (primary neurites originating from neuronal cell body) and branch (secondary neurites extended from primary neurites) were analyzed (Neurite Outgrowth Application Module; Molecular Devices). In general, […] in each biological replicate were analyzed.

[3] = test system: ATXN3-Q75-GFP SH-SY5Y cells; assay: Western blot of LC3-II:LC3-I ratio; conditions: uninduced = 100%, untreated induced 76%, range over trehalose and the four compounds
Protocol: For the immunoblotting analysis, ATXN3-Q75-GFP SH-SY5Y cells were seeded in 6-well plates (3 × 10^5/well) and treated with retinoic acid, test compounds, and doxycycline, as described. On day 8, cells were collected and lysed in buffer (50 mM Tris-HCl pH 8.0, 150 mM NaCl, 2 mM EDTA pH 8.0, 0.1% SDS, 0.5% sodium deoxycholate, 1% NP-40) containing the protease inhibitor cocktail (Sigma-Aldrich). After sonication, the lysates were centrifuged (12,000× g for 10 min at 4 °C) and protein concentrations determined (Bradford protein assay; Bio-Rad, Hercules, CA, USA). Aliquots of protein (20 µg) were separated by electrophoresis using 12% SDS-polyacrylamide gel followed by transfer to a polyvinylidene fluoride membrane. After being blocked with 5% skim milk at 4 °C overnight, the membrane was stained with LC3 (1:1000; Medical & Biological Laboratories Co. #PM036, Tokyo, Japan) or GAPDH (glyceraldehyde 3-phosphate dehydrogenase) (1:1000, MDBio #30000002, Taipei, Taiwan) primary antibody at 4 °C overnight. The immune complexes were detected using HRP-conjugated goat anti-rabbit IgG antibody and chemiluminescent substrate, as described.

[4] = test system: ATXN3-Q75-GFP SH-SY5Y cells; assay: Confocal microscopy of LC3 puncta, ATXN3-Q75 aggregates and P62 colocalization; conditions: range over trehalose and the four compounds; for Colocalization coefficient of ATXN3-Q75-GFP with LC3 puncta: untreated 0.014; for Colocalization coefficient of LC3 with P62: untreated 0.21; for LC3 puncta per cell: untreated induced 2.7
Protocol: ATXN3-Q75-GFP SY5Y cells were seeded onto 12-well plates (1 × 10^5/well) containing poly-L-lysine-coated coverslip on day 1; treated with retinoic acid, test compounds, and doxycycline on day 2; and fixed, permeabilized, and blocked on day 8, as described. The primary anti-LC3 antibody (1:1000; Cell Signaling #83506, Danvers, MA, USA) or anti-P62 antibody (1:1500; Cell Signaling #5114) was used to stain cells at 4 °C overnight. After washing with PBS containing 0.1% Tween 20 (PBST), cells were incubated for 2 h at room temperature with Cy5-conjugated (1:1000, Jackson ImmunoResearch 715-175-150) or Alexa Fluor 555-conjugated (1:500; Invitrogen #A-31572) secondary antibody, and washed three times with PBST. Nuclei were detected using DAPI (0.1 μg/mL; Sigma-Aldrich). The stained cells on coverslips were mounted onto microscope slides with Vectashield antifade mounting medium (Vector Laboratories, Newark, CA, USA) and examined using a Zeiss LSM880 confocal microscope (Carl Zeiss AG, Oberkochen, Baden-Württemberg, Germany). Cell images were acquired at excitation/emission wavelengths of 649/666 nm, 482/536 nm, 555/582 nm, and 385/461 nm for stained LC3 puncta, aggregates, P62, and nuclei, respectively. For colocalization, 300 cells from three independent experiments were analyzed and quantified for the proportion of pixels that LC3 (red) colocalized with P62 (yellow) using Mander’s overlap coefficient (MOC) in ZEN software version 2.1 (Carl Zeiss AG).

[5] = test system: ATXN3-Q75-GFP SH-SY5Y cells; assay: Filter trap assay of cell lysates; conditions: trehalose 10 mM; without compound = 100%
Protocol: The filter retardation assay was performed to quantify ATXN3-Q75 protein aggregates. The purified Trx-His-ATXN3-Q75 protein was incubated with test compounds (100 µM) at 37 °C for 2 days as described. In addition, proteins from compound-treated ATXN3-Q75-GFP SH-SY5Y cells were prepared (as described in Western blotting). Proteins (0.5 µg of biochemical reaction or 20 µg of cellular lysates) were diluted in 2% SDS in phosphate-buffered saline (PBS) and filtered through a cellulose acetate membrane (0.45-μm pore size; Sterlitech, Auburn, WA, USA) pre-equilibrated in 2% SDS in PBS on a dot-blot filtration apparatus (Bio-Rad Laboratories, Hercules, CA, USA). After washing with 2% SDS buffer, the membrane was blocked in PBS containing 5% skim milk at 4 °C overnight. Insoluble ATXN3-Q75 was probed with an anti-His tag (1:2000; OriGene #TA100013, Rockville, MD, USA) or anti-ATXN3 (1:1000; Invitrogen #PA5-26251) antibody. The immune complex on the filter was detected using horseradish peroxidase (HRP)-conjugated goat anti-mouse (#GTX213111-01) or goat anti-rabbit (#GTX213110-01) immunoglobulin G (IgG) antibody (1:5000; GeneTex, Irvine, CA, USA) and a chemiluminescent HRP substrate (Millipore, Billerica, MA, USA). The chemiluminescent signals were captured with an ImageQuant LAS 4000 (GE Healthcare, Chicago, IL, USA) and quantified (Multi Gauge V3.0 software, Fujifilm, Tokyo, Japan). […]

[6] = test system: ATXN3-Q75-GFP SH-SY5Y cells; assay: High-content analysis of ATXN3-Q75 aggregation in cells; conditions: trehalose 10 mM; untreated induced cells 8.2%; day 8
Protocol: as §1, with “ATXN3-Q75 aggregation and neurite outgrowth assays were performed on day 8 using a high-content imaging system (ImageXpress Micro Confocal; Molecular Devices).” left out
For the aggregation assay, cells were stained with Hoechst 33342 (0.1 µg/mL; Sigma-Aldrich) at 37 °C for 30 min. […] ATXN3-Q75 aggregation was determined by Transfluor technology based on GFP fluorescence intensity. […] Nuclei were detected using DAPI (0.1 μg/mL; Sigma-Aldrich). […] To quantify neurite outgrowth, microscopic images were segmented with multi-colored masks to assign each outgrowth to a cell body for quantification. Neurite total length (μm) and numbers of process (primary neurites originating from neuronal cell body) and branch (secondary neurites extended from primary neurites) were analyzed (Neurite Outgrowth Application Module; Molecular Devices). In general, 104 cells in each biological replicate were analyzed.

[7] = compound 10 µM, range over the four named compounds

O=C(/C=C/c1ccco1)c1c(O)c2ccccc2oc1=O [LM-022]
IC50 at 1 day [1]: 102 µM

CC(=O)/C(=C\c1ccccc1[N+](=O)[O-])Cc1c(-c2ccccc2)[nH]c2ccccc12 [NC009-3]
IC50 at 1 day [1]: > 100 µM

CCc1cccc2c(C/C(=C/c3ccccc3[N+](=O)[O-])C(C)=O)c[nH]c12 [NC009-6]
Neurite branch [2, 7]: 1.34–1.37 | Neurite process ([2]; compound 10 µM, untreated 2.41, range over the four named compounds): 2.55–2.57 | Neurite length [2, 7]: 26.1–26.9 µm | Relative LC3-II:LC3-I ratio ([3]; compound 10 μM): 102–124% | IC50 at 1 day [1]: 176 µM | Colocalization coefficient of ATXN3-Q75-GFP with LC3 puncta ([4]; compound 10 μM): 0.025–0.030 | Colocalization coefficient of LC3 with P62 ([4]; compound 10 μM): 0.26–0.29 | LC3 puncta per cell ([4]; compound 10 μM): 4.6–6.7

OC[C@H]1O[C@H](O[C@H]2O[C@H](CO)[C@@H](O)[C@H](O)[C@H]2O)[C@H](O)[C@@H](O)[C@@H]1O [trehalose, reference compound]
Neurite branch ([2]; trehalose 10 mM): 1.31 | Neurite length ([2]; trehalose 10 mM): 25.5 µm | Insoluble aggregated proteins in cell lysates (filter trap) [5]: 45% | Relative LC3-II:LC3-I ratio ([3]; trehalose 10 mM): 102–124% | Percentage of aggregated cells [6]: 7.4% | Colocalization coefficient of ATXN3-Q75-GFP with LC3 puncta ([4]; trehalose 10 mM): 0.025–0.030 | Colocalization coefficient of LC3 with P62 ([4]; trehalose 10 mM): 0.26–0.29 | LC3 puncta per cell ([4]; trehalose 10 mM): 4.6–6.7
